Data on four compounds can be found in ChEMBL document CHEMBL2390874, “Synthesis, antibacterial activity and cytotoxicity of new fused pyrazolo[1,5-a]pyrimidine and pyrazolo[5,1-c][1,2,4]triazine derivatives from new 5-aminopyrazoles” (Eur J Med Chem, 2013).

The test system of data set [1] is Bacillus subtilis. Nature of the data set: Antibacterial activity against Bacillus subtilis ATCC 11774 assessed as growth inhibition after 24 hrs by agar diffusion method. The class given is functional. For orientation: In agar diffusion tests the substance spreads into inoculated agar from a disc or well.
For data set [2], the system named is Staphylococcus aureus. Nature of the data set: Antibacterial activity against Staphylococcus aureus ATCC 25923 assessed as growth inhibition after 24 hrs by agar diffusion method. The class given is functional.
Data set [3] is described as follows: Selectivity index, ratio of CC50 for african green monkey vero cells to MIC for Pseudomonas aeruginosa ATCC 10145. Type of data set: functional.
Data set [4] is described as follows: Selectivity index, ratio of CC50 for african green monkey vero cells to MIC for Serratia marcescens ATCC 13880. The class given is functional.
Data set [5] can be described thus: Selectivity index, ratio of CC50 for african green monkey vero cells to MIC for Escherichia coli ATCC 10536. Type of data set: functional.
Data set [6] in a line: Selectivity index, ratio of CC50 for african green monkey vero cells to MIC for Bacillus subtilis ATCC 11774. Type of data set: functional.
Data set [7] can be described thus: Selectivity index, ratio of CC50 for african green monkey vero cells to MIC for Staphylococcus aureus ATCC 25923. The class given is functional.
Data set [8] deals with Salmonella typhimurium. The data set can be described thus: Antibacterial activity against Salmonella typhimurium ATCC 51812 assessed as growth inhibition at 1 mg/ml after 24 hrs by agar diffusion method. The class given is functional, organism-based. Particulars: Salmonella enterica subsp. enterica serovar Typhimurium.
In data set [9] the test system is Enterococcus faecalis. The data set can be described thus: Antibacterial activity against Enterococcus faecalis ATCC 14506 assessed as growth inhibition at 1 mg/ml after 24 hrs by agar diffusion method. The class given is functional, organism-based.
The test system of data set [10] is Staphylococcus epidermidis. Nature of the data set: Antibacterial activity against Staphylococcus epidermidis ATCC 12228 assessed as growth inhibition at 1 mg/ml after 24 hrs by agar diffusion method. The class given is functional, organism-based.
Data set [11] can be described thus: Cytotoxicity against african green monkey vero cells by MTT assay. Type of data set: cell-based. Particulars: chlorocebus sabaeus. In general terms: Tetrazolium assays rely on reduction of a dye to a coloured formazan, in cell work by metabolically active cells.
Data set [12] concerns Staphylococcus aureus. Nature of the data set: Antibacterial activity against methicillin-resistant Staphylococcus aureus ATCC 43300 assessed as growth inhibition at 1 mg/ml after 24 hrs by agar diffusion method. Type of data set: functional, organism-based.
In data set [13] the test system is Serratia marcescens. Nature of the data set: Bactericidal activity against Serratia marcescens ATCC 13880 by broth dilution method. Type of data set: functional.
Data set [14] has as its system Pseudomonas aeruginosa. The data set can be described thus: Bactericidal activity against Pseudomonas aeruginosa ATCC 10145 by broth dilution method. The class given is functional. In general terms: Broth dilution looks for growth in wells or tubes with falling amounts of substance.
Data set [15] concerns Staphylococcus aureus. Nature of the data set: Bactericidal activity against Staphylococcus aureus ATCC 25923 by broth dilution method. Type of data set: functional.
Data set [16] has as its system Escherichia coli. Nature of the data set: Bactericidal activity against Escherichia coli ATCC 10536 by broth dilution method. The class given is functional.
In data set [17] the test system is Bacillus subtilis. Nature of the data set: Bactericidal activity against Bacillus subtilis ATCC 11774 by broth dilution method. The class given is functional.
In data set [18] the test system is Serratia marcescens. Nature of the data set: Antibacterial activity against Serratia marcescens ATCC 13880 assessed as growth inhibition by broth dilution method. Type of data set: functional.
For data set [19], the system named is Escherichia coli. The data set can be described thus: Antibacterial activity against Escherichia coli ATCC 10536 assessed as growth inhibition by broth dilution method. The class given is functional.
Data set [20] deals with Pseudomonas aeruginosa. Nature of the data set: Antibacterial activity against Pseudomonas aeruginosa ATCC 10145 assessed as growth inhibition by broth dilution method. Type of data set: functional.
The test system of data set [21] is Staphylococcus aureus. The data set can be described thus: Antibacterial activity against Staphylococcus aureus ATCC 25923 assessed as growth inhibition by broth dilution method. The class given is functional.
In data set [22] the test system is Serratia marcescens. The data set can be described thus: Antibacterial activity against Serratia marcescens ATCC 13880 assessed as growth inhibition at 1 mg/ml after 24 hrs by agar diffusion method. Type of data set: functional. Particulars: ATCC 13880, 24 h, read-out: DIZ.
The subject of data set [23] is Bacillus subtilis. Nature of the data set: Antibacterial activity against Bacillus subtilis ATCC 11774 assessed as growth inhibition by broth dilution method. Type of data set: functional.
Data set [24] concerns Pseudomonas aeruginosa. The data set can be described thus: Antibacterial activity against Pseudomonas aeruginosa ATCC 10145 assessed as growth inhibition at 1 mg/ml after 24 hrs by agar diffusion method. The class given is functional. The following applies: ATCC 10145, 24 h, read-out: DIZ.
The test system of data set [25] is Escherichia coli. Nature of the data set: Antibacterial activity against Escherichia coli ATCC 10536 assessed as growth inhibition at 1 mg/ml after 24 hrs by agar diffusion method. Particulars: ATCC 10536, 24 h, read-out: DIZ. Type of data set: functional.
Data set [26] deals with Staphylococcus aureus. Nature of the data set: Antibacterial activity against Staphylococcus aureus ATCC 25923 assessed as growth inhibition at 1 mg/ml after 24 hrs by agar diffusion method. Type of data set: functional. Particulars: ATCC 25923, 24 h, read-out: DIZ.
For data set [27], the system named is Bacillus subtilis. The data set can be described thus: Antibacterial activity against Bacillus subtilis ATCC 11774 assessed as growth inhibition at 1 mg/ml after 24 hrs by agar diffusion method. Particulars: ATCC 11774, 24 h, read-out: DIZ. Type of data set: functional.
Data set [28] has as its system Serratia marcescens. Nature of the data set: Antibacterial activity against Serratia marcescens ATCC 13880 assessed as growth inhibition at 10 ug after 24 hrs by agar diffusion method. Particulars: ATCC 13880, 24 h, read-out: DIZ. The class given is functional.
The test system of data set [29] is Escherichia coli. The data set can be described thus: Antibacterial activity against Escherichia coli ATCC 10536 assessed as growth inhibition at 10 ug after 24 hrs by agar diffusion method. Type of data set: functional. The following applies: ATCC 10536, 24 h, read-out: DIZ.
The test system of data set [30] is Pseudomonas aeruginosa. Nature of the data set: Antibacterial activity against Pseudomonas aeruginosa ATCC 10145 assessed as growth inhibition at 10 ug after 24 hrs by agar diffusion method. Type of data set: functional. The following applies: ATCC 10145, 24 h, read-out: DIZ.

What is called CC50 is the concentration giving 50% cytotoxicity. The MBC is the smallest concentration meeting the test's criterion for killing. As a reminder, the MIC is the smallest concentration in the dilution series that meets the test's criterion for growth inhibition.

Structures are written as SMILES. In brackets after ≈: the same amount, converted by molar mass. Activity calls are given as the source filed them.

Consider `O=C(N[C@H](CO)[C@H](O)c1ccc([N+](=O)[O-])cc1)C(Cl)Cl` [CHLORAMPHENICOL], for which the “diameter of the inhibition zone (DIZ)” value in [1] and in data set [2] was 25 mm throughout.
For `N#Cc1c(N2CCCC2)n[nH]c1N`, the “Selectivity Index” value in [3], in data set [4], in [5], in data set [6] and in [7] was 0.31 in each case. Further, the “growth inhibition (GI)” value in data set [8], in [9], in data set [10] and in data set [12] was “inactive” throughout. For the same compound, the CC50 in data set [11] was determined as 2500 µg/mL (≈ 14.1 mM). The minimal bactericidal concentration (MBC) is 8000 µg/mL (≈ 45.1 mM) in [13]; 16000 µg/mL (≈ 90.3 mM) in [14]; 16000 µg/mL (≈ 90.3 mM) in data set [15]; 16000 µg/mL (≈ 90.3 mM) in data set [16]; 8000 µg/mL (≈ 45.1 mM) in data set [17]. Also, the MIC in [18] was 8000 µg/mL (≈ 45.1 mM); in [19] it was 8000 µg/mL (≈ 45.1 mM); in data set [20] it was 8000 µg/mL (≈ 45.1 mM); in data set [21], 16000 µg/mL (≈ 90.3 mM); in [23], 8000 µg/mL (≈ 45.1 mM). The zone of inhibition at 1000 µg/mL was 7 mm in data set [22]; 7 mm in data set [24]; 9 mm in data set [25]; 10 mm in data set [26]; 9 mm in [27].
Turning to `CN[C@@H]1[C@H](O[C@H]2[C@H](O[C@H]3[C@H](O)[C@@H](O)[C@H](N=C(N)N)[C@@H](O)[C@@H]3N=C(N)N)O[C@@H](C)[C@]2(O)C=O)O[C@@H](CO)[C@H](O)[C@H]1O` [STREPTOMYCIN], the zone of inhibition at 10 µg/disc stood at 20 mm in data set [28], 13 mm in data set [29] and 14 mm in [30].
As to `N#Cc1c(N2CCCCC2)n[nH]c1N`, the “Selectivity Index” value in data set [3] stood at 0.07; in data set [4], 0.28; in data set [5], 0.14; in data set [6], 0.14; in data set [7], 0.14. Also, the “growth inhibition (GI)” value in data set [8], in data set [9], in data set [10] and in data set [12] was “inactive” each time. This compound also came in with a CC50 in data set [11] of 550 µg/mL (≈ 2.88 mM). For the same compound, the minimal bactericidal concentration (MBC) was 4000 µg/mL (≈ 20.9 mM) in data set [13]; 8000 µg/mL (≈ 41.8 mM) in data set [14]; 16000 µg/mL (≈ 83.7 mM) in data set [15]; 8000 µg/mL (≈ 41.8 mM) in data set [16]; 8000 µg/mL (≈ 41.8 mM) in [17]. Besides, the minimum inhibitory concentration (MIC) in data set [18] was determined as 2000 µg/mL (≈ 10.5 mM); in data set [19], 4000 µg/mL (≈ 20.9 mM); in data set [20], 8000 µg/mL (≈ 41.8 mM); in [21] it was 16000 µg/mL (≈ 83.7 mM); in data set [23], 4000 µg/mL (≈ 20.9 mM). Moreover, the zone of inhibition at 1000 µg/mL is 6 mm in data set [22]; 7 mm in data set [24]; 15 mm in [25]; 15 mm in data set [26]; 9 mm in data set [27].
